Data: patent US20240391936A1, “TETRAHYDROTHIENO PYRIDINE DERIVATIVES AS DDRS INHIBITORS” (CHIESI FARMACEUTICI S.P.A., priority 2021, published 2024)

Legend:
DDR2 = target: T1, DDR2 (Homo sapiens, UniProt Q16832); assay: DDR2 binding assay (LanthaScreen Europium Kinase Binding assay); design: purchased Life Technologies; settings: binding assay, 5 nM DDR2, 10 nM Kinase Tracer 178; Ki from IC50 by Cheng-Prusoff; read-out: Ki DDR2
T1 sequence (Q16832 22-855): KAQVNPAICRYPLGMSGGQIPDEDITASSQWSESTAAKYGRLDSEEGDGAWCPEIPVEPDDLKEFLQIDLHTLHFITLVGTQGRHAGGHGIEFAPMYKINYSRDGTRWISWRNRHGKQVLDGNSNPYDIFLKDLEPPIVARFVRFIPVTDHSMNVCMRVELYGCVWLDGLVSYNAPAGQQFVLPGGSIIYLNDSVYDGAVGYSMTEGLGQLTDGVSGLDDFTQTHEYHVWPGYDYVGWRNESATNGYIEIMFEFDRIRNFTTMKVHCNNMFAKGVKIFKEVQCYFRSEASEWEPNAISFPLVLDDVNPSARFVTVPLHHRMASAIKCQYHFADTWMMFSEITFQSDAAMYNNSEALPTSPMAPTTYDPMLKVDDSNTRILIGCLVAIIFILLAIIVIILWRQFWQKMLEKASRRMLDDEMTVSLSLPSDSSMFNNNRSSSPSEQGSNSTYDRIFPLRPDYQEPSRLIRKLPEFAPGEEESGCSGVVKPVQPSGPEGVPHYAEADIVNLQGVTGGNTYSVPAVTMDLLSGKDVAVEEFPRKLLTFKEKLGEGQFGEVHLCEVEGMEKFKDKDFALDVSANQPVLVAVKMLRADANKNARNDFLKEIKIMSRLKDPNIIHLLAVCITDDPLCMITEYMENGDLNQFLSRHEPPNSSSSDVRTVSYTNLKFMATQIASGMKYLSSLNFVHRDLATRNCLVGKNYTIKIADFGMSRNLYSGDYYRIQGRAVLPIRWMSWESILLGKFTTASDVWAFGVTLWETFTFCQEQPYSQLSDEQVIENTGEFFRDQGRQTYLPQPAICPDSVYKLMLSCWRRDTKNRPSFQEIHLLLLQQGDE
Summary of the method: (§1)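 Compounds incubated 1 h at room temperature with 5 nM kinase, Kinase Tracer 178 (20 nM for DDR1, 10 nM for DDR2) and 2 nM Eu-anti-GST antibody in pH 7.5 HEPES/MgCl2/EGTA/BRIJ35 buffer. TR-FRET 665/615 nm ratio read after 340 nm excitation; IC50 from 4-parameter fit, converted to Ki by Cheng-Prusoff.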

DDR1 [1] = target: T2, DDR1 (Homo sapiens, UniProt Q08345); assay: DDR1 binding assay (LanthaScreen Europium Kinase Binding assay); design: purchased Carna Biosciences; settings: binding assay, 5 nM DDR1, 20 nM Kinase Tracer 178; Ki from IC50 by Cheng-Prusoff; read-out: Ki DDR1
Summary of the method: as §1

DDR1 [2] = target: T2, DDR1; assay: DDR1 cell based assay (PathHunter U2OS DDR1 assay); design: host or cells: U2OS-DDR1 (PathHunter); settings: U2OS-DDR1 cells, bovine Type II Collagen 20 μg/ml
Summary of the method: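 U2OS-DDR1 PathHunter cells preincubated 30 min with compound, then stimulated overnight at 37 °C with 20 μg/ml bovine type II collagen. Luminescent complementation signal read after 1 h detection at room temperature; normalized to vehicle (0%) and collagen-only (100%) controls, IC50 from variable-slope sigmoidal fit.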

T2 sequence (Q08345 19-913): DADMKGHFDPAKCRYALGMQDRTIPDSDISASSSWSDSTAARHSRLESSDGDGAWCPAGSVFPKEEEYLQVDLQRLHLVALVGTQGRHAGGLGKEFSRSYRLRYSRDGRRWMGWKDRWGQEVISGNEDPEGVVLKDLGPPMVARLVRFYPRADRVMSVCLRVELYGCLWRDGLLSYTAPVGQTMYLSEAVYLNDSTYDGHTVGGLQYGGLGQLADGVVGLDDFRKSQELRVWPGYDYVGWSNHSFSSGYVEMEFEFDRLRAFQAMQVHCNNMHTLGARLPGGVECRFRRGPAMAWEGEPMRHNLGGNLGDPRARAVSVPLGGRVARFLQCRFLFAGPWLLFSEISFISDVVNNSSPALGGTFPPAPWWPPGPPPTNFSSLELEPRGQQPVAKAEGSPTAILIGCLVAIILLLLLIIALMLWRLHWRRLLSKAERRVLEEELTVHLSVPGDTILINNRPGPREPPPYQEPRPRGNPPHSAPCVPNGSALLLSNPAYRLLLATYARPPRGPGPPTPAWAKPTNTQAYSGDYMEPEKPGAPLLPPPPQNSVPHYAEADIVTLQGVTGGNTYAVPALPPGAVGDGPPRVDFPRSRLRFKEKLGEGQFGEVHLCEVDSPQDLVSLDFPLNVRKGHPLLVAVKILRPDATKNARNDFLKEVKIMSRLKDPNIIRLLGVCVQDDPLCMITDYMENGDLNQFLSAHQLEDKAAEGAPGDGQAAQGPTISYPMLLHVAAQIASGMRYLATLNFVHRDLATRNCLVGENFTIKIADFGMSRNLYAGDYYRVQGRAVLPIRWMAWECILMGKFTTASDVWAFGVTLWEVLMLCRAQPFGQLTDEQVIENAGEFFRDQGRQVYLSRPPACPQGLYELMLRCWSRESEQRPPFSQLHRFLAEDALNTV

| Ki (DDR2) | Ki (DDR1 [1]) | IC50 (DDR1 [2]) | Compound |
| --- | --- | --- | --- |
| < 25 nM | < 25 nM | < 25 nM | O=C(Nc1cc(F)cc(C(F)(F)F)c1)c1csc2c1CCN(C(=O)c1cnn3cccnc13)C2 [Example 97, N-(3-fluoro-5-(trifluoromethyl)phenyl)-6-(pyrazolo[1,5-a]pyrimidine-3-carbonyl)-4,5,6,7-tetrahydrothieno[2,3-c]pyridine-3-carboxamide] |
| < 25 nM | < 25 nM | 50 to 80 nM | Cc1cn(-c2cc(NC(=O)c3csc4c3CCN(Cc3cnc5ccccn35)C4)cc(C(F)(F)F)c2)cn1 [Example 65, 6-(imidazo[1,2-a]pyridin-3-ylmethyl)-N-(3-(4-methyl-11H-imidazol-1-yl)-5-(trifluoromethyl)phenyl)-4,5,6,7-tetrahydrothieno[2,3-c]pyridine-3-carboxamide] |
| 25 to 50 nM | < 25 nM | 25 to 50 nM | Cc1cccc2ncc(C(=O)N3CCc4c(C(=O)Nc5cc(CN6CC[C@@H](N(C)C)C6)cc(C(F)(F)F)c5)csc4C3)n12 [Example 162, (R)—N-(3-((3-(dimethylamino)pyrrolidin-1-yl)methyl)-5-(trifluoromethyl)phenyl)-6-(5-methylimidazo[1,2-a]pyridine-3-carbonyl)-4,5,6,7-tetrahydrothieno[2,3-c]pyridine-3-carboxamide] |
| < 25 nM | < 25 nM | < 25 nM | O=C(Nc1ccc(CO)c(C(F)(F)F)c1)c1csc2c1CCN(C(=O)c1cnc3ccccn13)C2 [Example 132, N-(4-(hydroxymethyl)-3-(trifluoromethyl)phenyl)-6-(imidazo[1,2-a]pyridine-3-carbonyl)-4,5,6,7-tetrahydrothieno[2,3-c]pyridine-3-carboxamide] |
| < 25 nM | < 25 nM | 25 to 50 nM | COCCN(C)Cc1cc(NC(=O)c2csc3c2CCN(C(=O)c2cnc4ccccn24)C3)cc(C(F)(F)F)c1 [Example 61, 6-(imidazo[1,2-a]pyridine-3-carbonyl)-N-(3-(((2-methoxyethyl)(methyl)amino)methyl)-5-(trifluoromethyl)phenyl)-4,5,6,7-tetrahydrothieno[2,3-c]pyridine-3-carboxamide] |
| < 25 nM | < 25 nM | 50 to 80 nM | O=C(Nc1cc(CN2CCN(C3COC3)CC2)cc(C(F)(F)F)c1)c1csc2c1CCN(C(=O)c1cnc3ccccn13)C2 [Example 54, 6-(imidazo[1,2-a]pyridine-3-carbonyl)-N-(3-((4-(oxetan-3-yl)piperazin-1-yl)methyl)-5-(trifluoromethyl)phenyl)-4,5,6,7-tetrahydrothieno[2,3-c]pyridine-3-carboxamide] |
| < 25 nM | < 25 nM | 25 to 50 nM | O=C(Nc1ccc(CO)c(C(F)(F)F)c1)c1csc2c1CCN(C(=O)c1cnn3ccncc13)C2 [Example 180, N-(4-(hydroxymethyl)-3-(trifluoromethyl)phenyl)-6-(pyrazolo[1,5-a]pyrazine-3-carbonyl)-4,5,6,7-tetrahydrothieno[2,3-c]pyridine-3-carboxamide] |
| < 25 nM | < 25 nM | 25 to 50 nM | Cn1nc(NC(=O)c2csc3c2CCN(C(=O)c2cnn4ccncc24)C3)cc1C(C)(C)C [Example 116, N-(5-(tert-butyl)-1-methyl-1H-pyrazol-3-yl)-6-(pyrazolo[1,5-a]pyrazine-3-carbonyl)-4,5,6,7-tetrahydrothieno[2,3-c]pyridine-3-carboxamide] |
| < 25 nM | < 25 nM | 25 to 50 nM | Cc1ccc2ncc(C(=O)N3CCc4c(C(=O)Nc5cc(C(C)(C)C)nn5C)csc4C3)n2c1 [Example 80, N-(3-(tert-butyl)-1-methyl-1H-pyrazol-5-yl)-6-(6-methylimidazo[1,2-a]pyridine-3-carbonyl)-4,5,6,7-tetrahydrothieno[2,3-c]pyridine-3-carboxamide] |
| < 25 nM | < 25 nM | 25 to 50 nM | N#Cc1cc(NC(=O)c2csc3c2CCN(C(=O)c2cnc4ccccn24)C3)cc(C(F)(F)F)c1 [Example 131, N-(3-cyano-5-(trifluoromethyl)phenyl)-6-(imidazo[1,2-a]pyridine-3-carbonyl)-4,5,6,7-tetrahydrothieno[2,3-c]pyridine-3-carboxamide] |
| 25 to 50 nM | < 25 nM | 25 to 50 nM | CN1CCN(c2ccc3ncc(C(=O)N4CCc5c(C(=O)Nc6cc(C(C)(C)C)n(C)n6)csc5C4)n3c2)CC1 [Example 145, N-(5-(tert-butyl)-1-methyl-1H-pyrazol-3-yl)-6-(6-(4-methylpiperazin-1-yl)imidazo[1,2-a]pyridine-3-carbonyl)-4,5,6,7-tetrahydrothieno[2,3-c]pyridine-3-carboxamide] |
| < 25 nM | < 25 nM | < 25 nM | O=C(Nc1cncc(OC(F)(F)F)c1)c1csc2c1CCN(C(=O)c1cnn3ccncc13)C2 [Example 128, 6-(pyrazolo[1,5-a]pyrazine-3-carbonyl)-N-(5-(trifluoromethoxy)pyridin-3-yl)-4,5,6,7-tetrahydrothieno[2,3-c]pyridine-3-carboxamide] |
| < 25 nM | < 25 nM | 25 to 50 nM | CN(C)[C@@H]1CCN(Cc2cc(NC(=O)c3csc4c3CCN(Cc3cnc5[nH]ccc5c3)C4)cc(C(F)(F)F)c2)C1 [Example 159, (R)-6-((1H-pyrrolo[2,3-b]pyridin-5-yl)methyl)-N-(3-((3-(dimethylamino)pyrrolidin-1-yl)methyl)-5-(trifluoromethyl)phenyl)-4,5,6,7-tetrahydrothieno[2,3-c]pyridine-3-carboxamide] |
| < 25 nM | < 25 nM | 25 to 50 nM | CC(C)(C)c1cc(NC(=O)c2csc3c2CCN(C(=O)c2cnc4ccccn24)C3)n(CCO)n1 [Example 64, N-(3-(tert-butyl)-1-(2-hydroxyethyl)-1H-pyrazol-5-yl)-6-(imidazo[1,2-a]pyridine-3-carbonyl)-4,5,6,7-tetrahydrothieno[2,3-c]pyridine-3-carboxamide] |
| < 25 nM | < 25 nM | < 25 nM | Cn1nc(NC(=O)c2csc3c2CCN(Cc2cnc4[nH]ccc4c2)C3)cc1C(F)(F)F [Example 169, 6-((1H-pyrrolo[2,3-b]pyridin-5-yl)methyl)-N-(1-methyl-5-(trifluoromethyl)-1H-pyrazol-3-yl)-4,5,6,7-tetrahydrothieno[2,3-c]pyridine-3-carboxamide] |
| < 25 nM | < 25 nM | < 25 nM | O=C(Nc1cc(CO)cc(C(F)(F)F)c1)c1csc2c1CCN(C(=O)c1cnn3ccncc13)C2 [Example 187, N-(3-(hydroxymethyl)-5-(trifluoromethyl)phenyl)-6-(pyrazolo[1,5-a]pyrazine-3-carbonyl)-4,5,6,7-tetrahydrothieno[2,3-c]pyridine-3-carboxamide] |
| < 25 nM | < 25 nM | 25 to 50 nM | CC(=O)N1CCN(Cc2cc(NC(=O)c3csc4c3CCN(C(=O)c3cnc5ccccn35)C4)cc(C(F)(F)F)c2)CC1 [Example 58, N-(3-((4-acetylpiperazin-1-yl)methyl)-5-(trifluoromethyl)phenyl)-6-(imidazo[1,2-a]pyridine-3-carbonyl)-4,5,6,7-tetrahydrothieno[2,3-c]pyridine-3-carboxamide] |
| < 25 nM | < 25 nM | 25 to 50 nM | CN1CCN(c2n[nH]c3ncc(CN4CCc5c(C(=O)Nc6cncc(C(F)(F)F)c6)csc5C4)cc23)CC1 [Example 149, 6-((3-(4-methylpiperazin-1-yl)-1H-pyrazolo[3,4-b]pyridin-5-yl)methyl)-N-(5-(trifluoromethyl)pyridin-3-yl)-4,5,6,7-tetrahydrothieno[2,3-c]pyridine-3-carboxamide] |
| 25 to 50 nM | < 25 nM | 25 to 50 nM | CN(C)Cc1cc(NC(=O)c2csc3c2CCN(C(=O)c2cnc4ccccn24)C3)cc(C(F)(F)F)n1 [Example 129, N-(2-((dimethylamino)methyl)-6-(trifluoromethyl)pyridin-4-yl)-6-(imidazo[1,2-a]pyridine-3-carbonyl)-4,5,6,7-tetrahydrothieno[2,3-c]pyridine-3-carboxamide] |
